Assay results published in the supplement of paper PMC10307832.

Key:
Assay in all cases: relative viability (nuclei count vs DMSO), 5 days (fraction); higher = more cells survive
[1] = compound: C=CCNC1=C2C[C@@H](C)C[C@H](OC)[C@H](O)[C@@H](C)/C=C(\C)[C@H](OC(N)=O)[C@@H](OC)/C=C\C=C(/C)C(=O)NC(=CC1=O)C2=O [17-AAG] + CCNC(=O)c1noc(-c2cc(C(C)C)c(O)cc2O)c1-c1ccc(CN2CCOCC2)cc1 [Luminespib] (partner 0.01 µM)
Method in brief: (§1)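 Nuclei were stained with Hoechst during a one-step fixation (final 0.05% Triton X-100, 1% formaldehyde, 1 ug/ml Hoechst) carried out 5 days after dosing, then counted on 4× images. The cells, lung cancer lines in 1536-well plates, had been dosed by pin tool the day after seeding with one drug alone or a fixed anchor-drug dose plus five library-drug doses (not always all listed) in √10 steps. Relative viability is the nuclei count in treated wells divided by that in vehicle wells, and each value is the median of duplicate plates.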

[2] = compound: C=CCNC1=C2C[C@@H](C)C[C@H](OC)[C@H](O)[C@@H](C)/C=C(\C)[C@H](OC(N)=O)[C@@H](OC)/C=C\C=C(/C)C(=O)NC(=CC1=O)C2=O [17-AAG] + COc1cc2c(Oc3ccc(NC(=O)C4(C(=O)Nc5ccc(F)cc5)CC4)cc3F)ccnc2cc1OCCCN1CCOCC1 [Foretinib] (partner 0.25 µM)
Method in brief: as §1

[3] = compound: C=CCNC1=C2C[C@@H](C)C[C@H](OC)[C@H](O)[C@@H](C)/C=C(\C)[C@H](OC(N)=O)[C@@H](OC)/C=C\C=C(/C)C(=O)NC(=CC1=O)C2=O [17-AAG] + Cc1cc(Nc2cc(N3CCN(C)CC3)nc(Sc3ccc(NC(=O)C4CC4)cc3)n2)n[nH]1 [Tozasertib] (partner 0.1 µM)
Method in brief: as §1

[4] = compound: C=CCNC1=C2C[C@@H](C)C[C@H](OC)[C@H](O)[C@@H](C)/C=C(\C)[C@H](OC(N)=O)[C@@H](OC)/C=C\C=C(/C)C(=O)NC(=CC1=O)C2=O [17-AAG] + NC(=O)Nc1cc(-c2cccc(F)c2)sc1C(=O)N[C@H]1CCCNC1 [AZD7762] (partner 0.2 µM)
Method in brief: as §1

Row | Cell Line | relative viability ([1]; first compound 0.00128 µM) | relative viability ([1]; first compound 0.004048 µM) | relative viability ([1]; first compound 0.0128 µM) | relative viability ([1]; first compound 0.04048 µM) | relative viability ([1]; first compound 0.128 µM) | relative viability ([2]; first compound 0.00128 µM) | relative viability ([2]; first compound 0.004048 µM) | relative viability ([2]; first compound 0.0128 µM) | relative viability ([2]; first compound 0.04048 µM) | relative viability ([2]; first compound 0.128 µM) | relative viability ([3]; first compound 0.00128 µM) | relative viability ([3]; first compound 0.004048 µM) | relative viability ([3]; first compound 0.0128 µM) | relative viability ([3]; first compound 0.04048 µM) | relative viability ([3]; first compound 0.128 µM) | relative viability ([4]; first compound 0.00128 µM) | relative viability ([4]; first compound 0.004048 µM) | relative viability ([4]; first compound 0.0128 µM) | relative viability ([4]; first compound 0.04048 µM) | relative viability ([4]; first compound 0.128 µM)
1 | NCI-H1755 | 0.479 | 0.444 | 0.364 | 0.273 | 0.223 | 0.92 | 0.898 | 0.888 | 0.302 | 0.309 | 0.609 | 0.477 | 0.481 | 0.363 | 0.215 | 0.47 | 0.468 | 0.362 | 0.234 | 0.195
2 | NCI-H1793 | 0.191 | 0.149 | 0.136 | 0.16 | 0.169 | 0.63 | 0.622 | 0.442 | 0.165 | 0.161 | 0.385 | 0.313 | 0.398 | 0.154 | 0.123 | 0.66 | 0.306 | 0.173 | 0.109 | 0.0863
3 | NCI-H1915 | 0.682 | 0.659 | 0.548 | 0.418 | 0.0942 | 1.09 | 1.06 | 1.12 | 1.06 | 0.271 | 0.455 | 0.442 | 0.401 | 0.392 | 0.111 | 0.587 | 0.719 | 0.219 | 0.12 | 0.0582
4 | NCI-H1944 | 0.595 | 0.603 | 0.565 | 0.219 | 0.151 | 0.974 | 0.896 | 0.735 | 0.216 | 0.175 | 0.239 | 0.248 | 0.219 | 0.213 | 0.138 | 0.497 | 0.488 | 0.237 | 0.155 | 0.138
5 | NCI-H1975 | 0.198 | 0.175 | 0.14 | 0.176 | 0.139 | 1.02 | 0.904 | 0.288 | 0.136 | 0.118 | 0.796 | 0.587 | 0.145 | 0.12 | 0.0964 | 0.753 | 0.656 | 0.331 | 0.203 | 0.216
6 | NCI-H1993 | 0.919 | 0.625 | 0.516 | 0.273 | 0.423 | 0.83 | 0.846 | 0.826 | 0.516 | 0.466 | 0.56 | 0.591 | 0.585 | 0.42 | 0.453 | 0.936 | 0.644 | 0.325 | 0.339 | 0.248
7 | NCI-H2085 | 0.521 | 0.447 | 0.462 | 0.345 | 0.314 | 0.92 | 0.834 | 1.06 | 0.844 | 0.563 | 0.798 | 0.673 | 0.71 | 0.799 | 0.679 | 0.983 | 1.02 | 1 | 1 | 0.551
8 | NCI-H2087 | 0.17 | 0.158 | 0.159 | 0.131 | 0.0988 | 1.08 | 0.855 | 0.183 | 0.137 | 0.113 | 0.306 | 0.228 | 0.208 | 0.148 | 0.1 | 1.28 | 1.3 | 0.471 | 0.154 | 0.116
